“Also recorded” adds a separate entry of the source. Where two headings read alike, the source gives them in different places.
Legend:
[1] = system: HC11 cells; experiment: Colony formation assay in HC11 cells; format: cell-based, mouse; details: Notch/NACK independent cell line; FIG. 5B
Experimental: (§1) A cell based colony formation assay was used in these experiments. Normal mouse mammary epithelia HC11 cells have little or no endogenous NACK expression, and NACK knockdown had no effect on the growth of HC11 cells (FIG. 5A, lower panel). […] Knockdown of NACK was confirmed by western blot and qPCR (FIGS. 1D and 1E). […] Therefore, compounds that affect OE33 colony formation but not HC11 were desired. In order to screen the compounds, cells were treated with test compounds every other day.
(§2) Colony formation assay was utilized to determine the effect of small molecule inhibitors on cell proliferation. In general, different cell lines (NACK dependent or independent) will be seeded in 6-well plates at a density of 2000 cells per well and allowed to attach overnight. Inhibitor treatment commenced 24 hours post seeding, and the media containing inhibitor was changed every 48 hours thereafter. After 168 hours, colonies were be stained with Crystal Violet (Millipore) and counted.

[2] = system: OE33 cell line; experiment: Colony formation assay in OE33 cells; format: cell-based, human; details: for EC50: Homo sapiens, read-out: EC50 colony formation titration assay
Experimental: as §1, §2

[3] = biological target: TNIK (Homo sapiens, UniProt Q9UKE5); experiment: ADP-Glo TNIK kinase assay; format: biochemical; details: FIG. 17C
Experimental: (§3) ADP-Glo kinase assay was performed using ADP-Glo™ Kinase Assay (Promega, V6930) according to the manufacture recommended protocol.

[4] = biological target: T1, NACK (Mus musculus, UniProt Q571I4); experiment: Surface plasmon resonance (SPR) binding to GST tagged NACK; details: equilibrium approach, 1:1 binding model; 25° C.; FIG. 10A; read-out: KD
T1 sequence (Q571I4 1-1373): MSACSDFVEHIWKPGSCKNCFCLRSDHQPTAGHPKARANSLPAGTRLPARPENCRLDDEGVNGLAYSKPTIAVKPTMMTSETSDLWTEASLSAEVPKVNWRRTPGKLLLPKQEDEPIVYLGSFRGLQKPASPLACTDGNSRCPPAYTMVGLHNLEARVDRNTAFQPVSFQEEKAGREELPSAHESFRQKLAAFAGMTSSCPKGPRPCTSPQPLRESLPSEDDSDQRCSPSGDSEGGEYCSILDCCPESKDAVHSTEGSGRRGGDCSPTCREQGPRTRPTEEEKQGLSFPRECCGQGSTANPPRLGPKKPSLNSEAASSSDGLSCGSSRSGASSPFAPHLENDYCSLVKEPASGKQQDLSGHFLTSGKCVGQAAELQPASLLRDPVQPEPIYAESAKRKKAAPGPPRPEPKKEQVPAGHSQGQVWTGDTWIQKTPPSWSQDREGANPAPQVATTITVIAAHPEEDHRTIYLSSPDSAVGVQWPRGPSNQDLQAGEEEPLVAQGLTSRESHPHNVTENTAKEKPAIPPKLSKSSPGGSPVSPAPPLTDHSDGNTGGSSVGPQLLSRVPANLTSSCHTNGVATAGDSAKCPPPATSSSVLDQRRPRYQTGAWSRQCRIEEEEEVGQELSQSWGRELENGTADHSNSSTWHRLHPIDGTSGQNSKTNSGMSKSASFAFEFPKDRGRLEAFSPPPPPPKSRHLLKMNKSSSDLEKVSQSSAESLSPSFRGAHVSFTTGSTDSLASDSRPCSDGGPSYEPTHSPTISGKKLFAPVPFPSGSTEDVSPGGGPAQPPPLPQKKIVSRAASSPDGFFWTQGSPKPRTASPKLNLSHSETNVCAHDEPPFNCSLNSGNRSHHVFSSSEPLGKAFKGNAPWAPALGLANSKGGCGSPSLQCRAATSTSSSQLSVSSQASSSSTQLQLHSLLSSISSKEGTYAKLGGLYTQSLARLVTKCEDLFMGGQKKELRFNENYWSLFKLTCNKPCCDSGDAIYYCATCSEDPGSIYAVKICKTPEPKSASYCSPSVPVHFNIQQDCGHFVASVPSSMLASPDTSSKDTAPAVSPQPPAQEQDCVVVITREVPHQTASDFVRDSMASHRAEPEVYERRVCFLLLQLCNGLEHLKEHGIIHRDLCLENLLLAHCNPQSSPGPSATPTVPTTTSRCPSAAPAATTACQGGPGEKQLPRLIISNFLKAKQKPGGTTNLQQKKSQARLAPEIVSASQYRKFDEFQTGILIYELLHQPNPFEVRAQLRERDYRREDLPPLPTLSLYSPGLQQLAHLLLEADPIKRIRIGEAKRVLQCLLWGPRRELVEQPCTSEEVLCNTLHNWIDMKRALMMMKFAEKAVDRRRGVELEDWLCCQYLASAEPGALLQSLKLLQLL
Experimental: The interaction between inhibitor Z271-0326 and target NACK was characterized using surface plasmon resonance (SPR). For this purpose, GST tagged NACK was captured by a GST antibody that was previously immobilized onto the surface of the chip through standard amide coupling. The dissociation constants associated with binding of the compounds to NACK was determined using the equilibrium approach, which consists of plotting the equilibrium response (Req) as a function of concentration of the compound and fitting the data to a 1:1 binding model.
A GST capture kit (GE Healthcare) were utilized to covalently immobilize an anti-GST antibody, provided in the kit, to the sensor chip surface (CM5 chip, GE Healthcare) by following the manufacturer's instructions. Capture were performed by injecting GST-NACK (1 μg/μL) over the immobilized anti-GST antibody in Hepes buffer (10 mM Hepes, pH 7.5, 150 mM NaCl, 3 mM EDTA, 0.0005% NP-40) for 7 min at 10 μL/min. A reference flow cell was prepared by capturing GST following the procedure described above. […] Experiments were performed on a Biacore T200 instrument (GE Healthcare) at 25° C. Small molecule inhibitors binding to NACK were performed in 50 mM Tris buffer, pH 7.5, containing 150 mM NaCl, 10 mM MgCl2 and 5% DMSO (running buffer). The SPR signal arising from the sample was corrected for its respective control containing DMSO. Data visualization and analysis was performed using Biacore T200 software (GE Healthcare) and Origin 8.0 (OriginLab).

[5] = Maximum tolerated dose in efficacy studies; details: mouse, in vivo, ip, 25 mg/kg; 4-week efficacy studies; intraperitoneal
[6] = biological target: LCK (Homo sapiens, UniProt P06239); experiment: ADP-Glo LCK kinase assay; format: biochemical; details: FIG. 17B
Experimental: as §3

Sequence of TNIK (Q9UKE5 whole entry, species assumed): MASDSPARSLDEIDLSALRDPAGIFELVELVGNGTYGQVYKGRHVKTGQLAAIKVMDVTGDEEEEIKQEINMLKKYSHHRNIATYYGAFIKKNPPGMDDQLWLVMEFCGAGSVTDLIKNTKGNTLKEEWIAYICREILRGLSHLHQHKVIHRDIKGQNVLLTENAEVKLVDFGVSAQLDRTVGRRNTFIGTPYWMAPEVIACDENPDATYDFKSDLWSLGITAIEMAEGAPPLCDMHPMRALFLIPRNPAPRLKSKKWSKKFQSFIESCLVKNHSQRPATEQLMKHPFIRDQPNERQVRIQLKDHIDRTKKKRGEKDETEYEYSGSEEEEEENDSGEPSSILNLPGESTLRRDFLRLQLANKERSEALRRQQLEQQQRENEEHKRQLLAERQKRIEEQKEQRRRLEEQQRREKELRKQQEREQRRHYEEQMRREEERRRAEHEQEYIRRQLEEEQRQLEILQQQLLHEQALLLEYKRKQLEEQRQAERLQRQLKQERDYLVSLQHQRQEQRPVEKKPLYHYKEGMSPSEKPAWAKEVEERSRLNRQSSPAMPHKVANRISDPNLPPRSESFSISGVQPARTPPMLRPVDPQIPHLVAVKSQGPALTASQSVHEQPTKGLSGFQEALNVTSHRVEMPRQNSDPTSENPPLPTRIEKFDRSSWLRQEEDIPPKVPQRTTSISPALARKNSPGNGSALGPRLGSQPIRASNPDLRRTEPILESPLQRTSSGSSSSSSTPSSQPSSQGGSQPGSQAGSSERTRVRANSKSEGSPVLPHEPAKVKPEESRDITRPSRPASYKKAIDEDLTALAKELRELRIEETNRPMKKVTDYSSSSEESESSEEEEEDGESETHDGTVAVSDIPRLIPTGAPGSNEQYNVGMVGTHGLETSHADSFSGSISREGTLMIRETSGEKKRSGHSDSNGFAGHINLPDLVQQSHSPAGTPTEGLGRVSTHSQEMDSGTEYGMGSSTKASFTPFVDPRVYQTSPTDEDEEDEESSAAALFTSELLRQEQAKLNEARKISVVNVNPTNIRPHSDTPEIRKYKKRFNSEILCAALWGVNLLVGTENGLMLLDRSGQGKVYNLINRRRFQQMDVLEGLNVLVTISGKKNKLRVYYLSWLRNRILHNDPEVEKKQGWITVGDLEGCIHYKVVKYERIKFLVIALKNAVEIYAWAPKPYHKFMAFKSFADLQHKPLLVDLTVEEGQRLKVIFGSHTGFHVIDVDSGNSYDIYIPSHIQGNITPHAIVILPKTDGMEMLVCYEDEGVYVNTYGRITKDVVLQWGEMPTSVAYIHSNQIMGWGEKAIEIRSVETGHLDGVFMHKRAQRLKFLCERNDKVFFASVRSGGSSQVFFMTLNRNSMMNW
Sequence of LCK (P06239 whole entry, species assumed): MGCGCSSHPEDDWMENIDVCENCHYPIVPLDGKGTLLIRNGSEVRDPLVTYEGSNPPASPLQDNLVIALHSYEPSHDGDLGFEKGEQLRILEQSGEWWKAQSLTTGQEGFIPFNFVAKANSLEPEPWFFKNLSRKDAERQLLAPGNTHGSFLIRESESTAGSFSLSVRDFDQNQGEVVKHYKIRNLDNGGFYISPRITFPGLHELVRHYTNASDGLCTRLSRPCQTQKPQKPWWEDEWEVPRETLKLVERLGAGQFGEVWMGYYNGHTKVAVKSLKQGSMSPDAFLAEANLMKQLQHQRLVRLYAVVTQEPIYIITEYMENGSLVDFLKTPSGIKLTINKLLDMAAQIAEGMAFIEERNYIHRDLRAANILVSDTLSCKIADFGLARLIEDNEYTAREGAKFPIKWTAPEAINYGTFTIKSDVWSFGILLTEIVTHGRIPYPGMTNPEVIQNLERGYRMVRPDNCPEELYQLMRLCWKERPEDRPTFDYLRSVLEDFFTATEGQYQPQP

CCN(CC)C(=O)c1cnn2ccc(C3CCN(S(=O)(=O)c4ccc(NC(C)=O)cc4)CC3)cc12 [Compound Z271-0326, 5-(1-((4-acetamidophenyl)sulfonyl)piperidin-4-yl)-N,N-diethylpyrazolo[1,5-a]pyridine-3-carboxamide]
HC11 colony formation / viability [1]: but not HC11 cell; also recorded: insensitive
EC50 ([2]; OE33, OE33 cell line, FIG. 18): 1270 nM
EC50 ([2]; OE33, estimated, FIG. 6C): 1050 nM
OE33 colony formation ([2]; cells treated every other day, FIGS. 5B, 5C): effectively inhibit OE33 colony formation
TNIK kinase inhibition [3]: only meaningfully inhibits LCK out of the three kinases
Kd [4]: 890 ± 70 nM
MTD at 4 weeks [5]: 25 mg/kg
LCK kinase inhibition [6]: meaningfully inhibits LCK
